Reference: US9678060B2, “Lunasin-induced regulation of disease-related gene expression” (THE REGENTS OF THE UNIVERSITY OF CALIFORNIA, priority 2007, dated 2017)

Tests used:
[1] = system: UGT1A family of genes in HepG2 liver cells; assay: UGT1A expression in HepG2 cells (Western blot, RT-PCR); format: cell-based; details: 24 h
Procedure: HepG2 liver cells are grown in cell culture in the presence or absence of 10 uM lunasin peptide. After 24 h exposure, cells are harvested and total protein and RNA are harvested. Western blots are immunostained with UGT1A1 antibody and densitometer signals normalized using actin controls. […] Real-time quantitative RT-PCR will be conducted to measure differences in transcription levels.

[2] = system: p21/WAF1/Cip1 in NIH 3T3 cells; details: NIH 3T3 cells pre-treated 24 h, eight days after E1A transfection; cited from earlier work
[3] = system: tumorigenic prostate epithelial cell line (RWPE-2); assay: Microarray gene expression profile after 24 hour exposure to lunasin; format: cell-based, human
Procedure: (§1) In the present disclosure the investigators analyzed changes in gene expression profiles of normal (RWPE-1) and malignant (RWPE-2) prostate epithelial cell lines after 24 hour exposure to synthetic lunasin. Results disclosed herein support the anti-neoplastic property of lunasin and help elucidate its molecular mechanism. […] It is therefore reasoned that lunasin suppresses neoplastic transformation by up-regulating various genes.
(§2) To determine the genetic changes associated with lunasin treatment, the gene expression profiles of non-tumorigenic (RWPE-1) (SEQ ID No.2) and tumorigenic (RWPE-2) (SEQ ID No.2) prostate cells treated with synthetic lunasin were assessed using microarray analysis.

[4] = system: non-tumorigenic prostate epithelial cell line (RWPE-1); assay: as above; format: cell-based, human
Procedure: as §1, §2

[5] = system: C3H 10T1/2 mouse embryo fibroblast cells; details: C3H/T101/2 cells pre-treated 24 hour with lunasin (as little as 125 nM), then DMBA and MCA; six weeks assay; cited from earlier work
[6] = system: E1A-transfected mouse fibroblast NIH 3T3 cells; details: E1A-transfected NIH 3T3 cells; cited from earlier work
[7] = system: H4-Lys16 acetylation at THBS gene promoter/CpG island; assay: PCR of ChIP DNA isolated with acetylated H4-Lys16 antibody; format: cell-based, human; details: lunasin-treated RWPE-1 (non-tumorigenic)
Text: (§3) THBS contains a CpG island within its promoter which together with other chemopreventative genes and tumor suppressors are frequently found to be hypermethylated during cancer formation. Since DNA hypermethylation of CpG islands is associated with histone hypoacetylation, we wanted to determine if there is a loss of H4-Lys16 acetylation within this region of the gene by conducting PCR on chromatin immunoprecipitated (ChiP) DNA using acetylated H4-Lys16 antibody and primers derived from the promoter/CpG island and exon 11 of the thrombospondin gene. […] The loss of H4-Lys16 acetylation on CpG island of the THBS promoter in tumor prostate cells leads to the silencing of the THBS gene and the inability of lunasin to increase H4-Lys16 acetylation and upregulate expression in tumorigenic cell lines.
(§4) THBS protein levels were determined in RWPE-1 and -2 cell lines treated with or without lunasin. PCR was conducted on ChIP DNA isolated with acetylated H4-Lys16 antibody, using primers derived from the promoter and exon 11 of the THBS gene.

deacetylated histone H4 = deacetylated histone H4 (Homo sapiens, UniProt P62805); assay: Binding to histone H4 (FIG. 8)
[8] = biological target: T1, histone H4 N-terminal tail lysines acetylated by Hat1 (Homo sapiens, UniProt P62805); assay: In vitro histone acetylation (HAT) assay, Hat1; format: biochemical
T1 construct: Acid extracted histones from untreated Hela cells; endogenous in cells; host or cells: HeLa
Text: (§5) Inhibition of histone acetylation and hypoacetylated histones are by nature correlated with transcriptional silencing and downregulation of genes. How then can lunasin, which inhibits H3 and H4 N-terminal tail acetylation, act as a transcriptional activator? To answer this question, the inventors determined the effect of lunasin on the acetylation of specific lysine residues on the H4 N-terminal tail ([…]) using the PCAF, Hat1 and p300 histone acetylase enzymes and acid-extracted core histones as substrate.
(§6) Acid extracted histones from untreated Hela cells and purified recombinant histone H4 are used as templates in an in vitro histone acetylation (HAT) assay. Histone templates are pre-incubated in the presence or absence of 2 μM lunasin peptide for 30 min at RT before the addition of acetyl co-A, HAT reaction buffer and histone acetylase enzymes (p300, HAT1 and PCAF). HAT reaction mixture is incubated with shaking at 30° C. for 1 h before stopping the reaction by adding protein sample buffer and boiling for 5 min. Samples are run on 10-20% SDS-PAGE gels, blotted onto nitrocellulose membranes and immunostained with antibodies against histone H4 with specific N-terminal lysine acetylation sites at […], 8, 12 and 16. Densitometer readings are normalized using signals from untreated histone templates.

[9] = system: E1A-transfected C3H10T1/2 cells; details: cited from earlier work
thrombospondin (THBS) = assay: Western blot of THBS protein in RWPE-1 and RWPE-2 cells; format: cell-based, human
Text: as §3, §4

[10] = biological target: T2, histone H4 N-terminal tail lysines acetylated by p300 (Homo sapiens, UniProt P62805); assay: In vitro histone acetylation (HAT) assay, p300; format: biochemical
T2 construct: Acid extracted histones from untreated Hela cells; endogenous in cells; host or cells: HeLa
Text: as §5, §6

female SENCAR mice = details: topical application; cited from earlier work
[11] = biological target: T3, histone H4 N-terminal tail lysines acetylated by PCAF (Homo sapiens, UniProt P62805); assay: In vitro histone acetylation (HAT) assay, PCAF; format: biochemical; details: 2 μM lunasin
T3 construct: Acid extracted histones from untreated Hela cells; endogenous in cells; host or cells: HeLa
Text: as §5, §6

[12] = RWPE-1, 24 hour exposure to 2 micromolar lunasin
[13] = acid-extracted core histones, 2 μM lunasin
[14] = basal acid-extracted core histones, 2 μM lunasin
[15] = lunasin-treated acid-extracted core histones, 2 μM lunasin
[16] = recombinant H4, same in lunasin-treated and non-treated

H4-Lys 5 acetylation by Hat1 [8, 13]: did not reduce
H4-Lys12 acetylation by Hat1 [8, 13]: did not reduce
inhibition of H4-Lys 8 acetylation by Hat1 [8, 14]: 30%
increase in H4-Lys16 acetylation by Hat1 [8, 15]: 30%
Lys16 acetylation by Hat1, recombinant H4 as substrate [8, 16]: loss of Lys16 acetylation
H4-Lys12 acetylation by p300 [10, 13]: did not reduce
inhibition of H4-Lys 8 acetylation by p300 [10, 14]: 23.5%
increase in H4-Lys16 acetylation by p300 [10, 15]: 22%
Lys16 acetylation by p300, recombinant H4 as substrate [10, 16]: loss of Lys16 acetylation
H4-Lys 5 acetylation by pCAF ([11]; acid-extracted core histones): did not reduce
inhibition of H4-Lys 8 acetylation by PCAF ([11]; basal acid-extracted core histones): 33%
Substance: lunasin: 43 amino acid small subunit of a soybean 2S albumin; residues 22-64 of SEQ ID NO:2 of U.S. Pat. No. 6,544,956; used as synthetic peptide
UGT1A1 protein levels (Western blot) ([1]; 10 uM lunasin): upregulates
UGT1A1 expression (RT-PCR) ([1]; 10 μM lunasin): significant upregulation
UGT1A3 expression (RT-PCR) ([1]; 10 μM lunasin): significant upregulation
UGT1A6 expression (RT-PCR) ([1]; 10 μM lunasin): significant upregulation
UGT1A10 expression (RT-PCR) ([1]; 10 μM lunasin): significant upregulation
increase in p21/WAF1/Cip1 protein levels [2]: five-fold increase
Genes up-regulated (greater than twofold change) ([3]; RWPE-2, 2 μM lunasin for 24 hours, 14500 genes interrogated): only two genes were up-regulated
Genes down-regulated ([3]; tumorigenic epithelial cells, 2 μM lunasin): No genes were down-regulated
Number of genes up-regulated (greater than twofold change) ([4]; RWPE-1, 2 μM lunasin for 24 hours, 14500 genes interrogated): 121 genes
Fold-change BNIP3, NIP3 [4, 12]: 2.05
Fold-change BUB1B, BUBR1 [4, 12]: 2.23
Fold-change ERBB2IP, ERBIN [4, 12]: 2.23
Fold-change MAD2L1 [4, 12]: 2.12
Fold-change PORIMIN [4, 12]: 2.26
Fold-change PRKAR1A, PKA [4, 12]: 2.45
Fold-change PRKCL2, PRK2 [4, 12]: 2.33
Fold-change PSMC6 [4, 12]: 2.58
Fold-change RANBP2 [4, 12]: 2.36
Fold-change SMURF2 [4, 12]: 2.29
Fold-change SPTLC1 [4, 12]: 2.12
Fold-change THBS1, TSP1 [4, 12]: 2.05
Fold-change TOB1 [4, 12]: 2.32
Fold-change TTK [4, 12]: 2.08
Fold-change UBE1C [4, 12]: 2.15
Fold-change USP1 [4, 12]: 2.23
SP3 expression in microarray ([4]; at 24 hours): upregulated
Genes down-regulated ([4]; non-tumorigenic epithelial cells, 2 μM lunasin): No genes were down-regulated
p21/WAF1/Cip1 expression in microarray ([4]; within 24 hours): did not show upregulation
reduction of foci formation [5]: 70%
foci formation [6]: suppress foci formation
H4-Lys16 acetylation at THBS gene (ChIP PCR) [7]: significant increase
binding preference for histone H4 (deacetylated histone H4): preferentially binds to deacetylated histone H4
apoptosis [9]: induce apoptosis
THBS protein level (Western blot) (thrombospondin (THBS); non-tumorigenic RWPE-1 cell line): upregulated
THBS protein level (Western blot) (thrombospondin (THBS); tumorigenic RWPE-2 prostate cells): silenced
skin tumorigenesis (female SENCAR mice): inhibited skin tumorigenesis
